Laboratory results as given in patent US5391540A, “Substituted pyridine compounds” (Rohm and Haas Company, priority 1993, dated 1995).

Experiments:
Assay in all cases: Pre-emergent herbicidal activity (Table A)
Assay type in all cases: in vivo
Pennsylvania Smartweed = conditions: pre-emergence, Pesw, 11.2 kg/ha, 10-14 days, read-out: herbicidal rating (% inhibition)
How it was run: (§1)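 Seeds or vegetative propagules were set on topsoil compacted to 0.95 to 1.27 cm below the pan rim, then covered with soil thoroughly mixed with a known amount of test compound in acetone or water carrier. Ratings follow a scale of percent inhibition per species.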

Common Lambsquarters = conditions: Chenopodium album, pre-emergence, Colq, 11.2 kg/ha, 10-14 days, read-out: herbicidal rating (% inhibition)
How it was run: as §1

Rhizome Johnsongrass = conditions: Sorghum halepense, pre-emergence, Rhjg, 11.2 kg/ha, 10-14 days, read-out: herbicidal rating (% inhibition)
How it was run: as §1

Cocklebur = conditions: Xanthium strumarium, pre-emergence, Cobu, 11.2 kg/ha, 10-14 days, read-out: herbicidal rating (% inhibition)
How it was run: as §1

Yellow Nutsedge = conditions: Cyperus, pre-emergence, Yens, 11.2 kg/ha, 10-14 days, read-out: herbicidal rating (% inhibition)
How it was run: as §1

Downy Brome = conditions: Bromus tectorum, pre-emergence, Dobr, 11.2 kg/ha, 10-14 days, read-out: herbicidal rating (% inhibition)
How it was run: as §1

Velvetleaf = conditions: Abutilon theophrasti, pre-emergence, Vele, 11.2 kg/ha, 10-14 days, read-out: herbicidal rating (% inhibition)
How it was run: as §1

Barnyardgrass = conditions: Echinochloa crus-galli, pre-emergence, Bygr, 11.2 kg/ha, 10-14 days, read-out: herbicidal rating (% inhibition)
How it was run: as §1

Canada thistle = conditions: Cirsium arvense, pre-emergence, Cath, 11.2 kg/ha, 10-14 days, read-out: herbicidal rating (% inhibition)
How it was run: as §1

Morningglory = conditions: Ipomoea, pre-emergence, Mogl, 11.2 kg/ha, 10-14 days, read-out: herbicidal rating (% inhibition)
How it was run: as §1

Quackgrass = conditions: pre-emergence, Rhqg, 11.2 kg/ha, 10-14 days, read-out: herbicidal rating (% inhibition)
How it was run: as §1

Compound | inhibition at 11200 g/ha (Pennsylvania Smartweed) [%] | inhibition at 11200 g/ha (Common Lambsquarters) [%] | inhibition at 11200 g/ha (Rhizome Johnsongrass) [%] | inhibition at 11200 g/ha (Cocklebur) [%] | inhibition at 11200 g/ha (Yellow Nutsedge) [%] | inhibition at 11200 g/ha (Downy Brome) [%] | inhibition at 11200 g/ha (Velvetleaf) [%] | inhibition at 11200 g/ha (Barnyardgrass) [%] | inhibition at 11200 g/ha (Canada thistle) [%] | inhibition at 11200 g/ha (Morningglory) [%] | inhibition at 11200 g/ha (Quackgrass) [%]
CCOc1nc(C(F)(F)F)c(C(=O)n2cccn2)c(CC(C)C)c1C(=O)OC [Compound 49, 3-pyridinecarboxylic acid, 2-ethoxy-4-(2-methylpropyl)-5-(1H-pyrazo1-1-ylcarbonyl)-6-(trifluoromethyl)-, methyl ester] | 75 to 100 | 75 to 100 | 50 to 74 | 25 to 49 | 75 to 100 | 75 to 100 | 75 to 100 | 75 to 100 | 75 to 100 | 75 to 100 | 75 to 100
COC(=O)c1c(OC)nc(C(F)(F)F)c(C(=O)n2ccc(C)n2)c1CC(C)C [Compound 51, 3-pyridinecarboxylic acid, 2-methoxy-4-(2-methylpropyl)-5-[(3-methy1-1H-pyrazo1-1-yl)carbonyl]-6-(trifluoromethyl)-, methyl ester] | 75 to 100 | 75 to 100 | 75 to 100 | 25 to 49 | 25 to 49 | 75 to 100 | 75 to 100 | 75 to 100 | 75 to 100 | 75 to 100 | 75 to 100
COC(=O)c1c(OC)nc(C(F)(F)F)c(C(=O)n2cccn2)c1C1CCC1 [Compound 52, 3-pyridinecarboxylic acid, 4-cyclobutyl-2-methoxy-5-(1H-pyrazo1-1-ylcarbonyl)-6-(trifluoromethyl)-, methyl ester] | 75 to 100 | 75 to 100 | 0 to 24 | 75 to 100 | 75 to 100 | 75 to 100 | 75 to 100 | 75 to 100 | 75 to 100 | 75 to 100 | 75 to 100
CCSC(=O)c1c(C(F)(F)F)nc(OC)c(C(=O)OC)c1CC(C)C [Compound 53, 3-pyridinecarboxylic acid, 5-[(ethylthio)carbonyl]-2-methoxy-4-(2-methylpropyl)-6-(trifluoromethyl)-, methyl ester] | 75 to 100 | 75 to 100 | 0 to 24 | 75 to 100 | 0 to 24 | 75 to 100 | 75 to 100 | 75 to 100 | 0 to 24 | 75 to 100 | 75 to 100
COc1nc(C(F)(F)F)c(C2=NCCS2)c(CC(C)C)c1C(=O)SC [Compound 54, 3-pyridinecarbothioic acid, 5-(4,5-dihydro-2-thiazolyl)-2-methoxy-4-(2-methylpropyl)-6-(trifluoromethyl)-, S-methyl ester] | 75 to 100 | 75 to 100 | 0 to 24 | 25 to 49 | 0 to 24 | 75 to 100 | 75 to 100 | 75 to 100 | 75 to 100 | 75 to 100 | 75 to 100
CN=C(SC)c1c(OC)nc(C(F)(F)F)c(C(=O)OC)c1CC(C)C [Compound 55, 3-pyridinecarboxylic acid, 6-methoxy-5-[(methylimino)(methylthio)methyl]-4-(2-methylpropyl)-2-(trifluoromethyl)-, methyl ester] | 75 to 100 | 75 to 100 | 0 to 24 | 0 to 24 | 0 to 24 | 75 to 100 | 25 to 49 | 75 to 100 | 0 to 24 | 25 to 49 | 75 to 100
